Experimental data: PMC4556614 (PLoS ONE, 2015)

How the values were obtained:
[1] = molecular target: T1, OCT2 (Homo sapiens, UniProt O15244); experiment: Inhibition of OCT2-mediated [14C]metformin uptake in HEK-OCT2 cells; conditions: for inhibition at 3 min, 20 µM / inhibition at 3 min, 200 µM: pH 7.3, probe [14C]metformin, 1000 µM; for inhibition at 3 min, 20 µM: % Inhibition of OCT2-dependent MF uptake at 20 µM (mean ± SEM); for inhibition at 3 min, 200 µM: % Inhibition of OCT2-dependent MF uptake at 200 µM (mean ± SEM), test drug 200 µM
T1 sequence (O15244 whole entry): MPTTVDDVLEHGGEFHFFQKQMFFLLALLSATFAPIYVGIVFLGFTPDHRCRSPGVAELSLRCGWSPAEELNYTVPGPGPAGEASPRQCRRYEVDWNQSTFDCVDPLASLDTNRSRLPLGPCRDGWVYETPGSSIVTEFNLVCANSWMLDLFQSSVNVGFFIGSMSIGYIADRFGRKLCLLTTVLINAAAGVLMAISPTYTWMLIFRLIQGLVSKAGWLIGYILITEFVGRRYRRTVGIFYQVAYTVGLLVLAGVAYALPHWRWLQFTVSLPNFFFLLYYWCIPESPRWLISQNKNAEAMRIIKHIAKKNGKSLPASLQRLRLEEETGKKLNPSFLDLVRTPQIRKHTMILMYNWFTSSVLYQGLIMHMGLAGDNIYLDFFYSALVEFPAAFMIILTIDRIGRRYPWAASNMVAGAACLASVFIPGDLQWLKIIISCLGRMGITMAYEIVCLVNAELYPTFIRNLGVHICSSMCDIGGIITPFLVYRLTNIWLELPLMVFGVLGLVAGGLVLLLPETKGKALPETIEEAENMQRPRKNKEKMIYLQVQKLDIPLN
Method: (§1) For the transport assays HEK cell lines stably transfected with human OCT2 (HEK-OCT2) or the vector only (HEK-VC) were used. The HEK-OCT2 cell line was established and characterized previously. HEK-OCT2 and HEK-VC cells were seeded in poly-D-lysine (Sigma Aldrich, Taufkirchen, Germany) coated 48-well-plates at a density of 1.2 x 10^5 cells/well. […] Uptake was stopped by washing the cells three times with ice-cold uptake buffer. Afterwards, cells were lysed with 5 mM Tris buffer (pH 7.3) containing 0.1% Triton X-100. The intracellular accumulation of radioactivity was determined by liquid scintillation counting (PerkinElmer, Rodgau-Jügesheim, Germany) and protein concentration of each lysate was measured with bicinchonic acid assay (BCA Protein Assay Kit, Thermo Fisher Scientific, Waltham, MA, USA). We performed two to eight experiments each on at least two separate days, i.e., n = 4–16.
Experimental half-maximal inhibitory concentrations (IC50 values) were measured as the substrate uptake in the presence of increasing concentrations of test drugs. These experiments were performed as described above (three experiments each on two separate days, i.e., n = 6). IC50 values were calculated with GraphPad Prism 5.0 (GraphPad Software, San Diego, CA, USA). IC50 was estimated by a sigmoidal inhibition model and was fit to the equation V = V 0 / (1 + (I / IC50 ) ^n ) by nonlinear regression. V is the net uptake in the presence of the inhibitor, V 0 is the net uptake in the absence of the inhibitor, I is the concentration of the inhibitor and n is the slope.

[2] = molecular target: T1, OCT2; experiment: Inhibition of OCT2-mediated [3H]MPP+ uptake in HEK-OCT2 cells; conditions: for inhibition at 3 min, 20 µM / inhibition at 3 min, 200 µM: pH 7.3, probe [3H]MPP+, 50 µM
Method: as §1

[3] = human, test drug 20 µM, metformin 1000 μM, 3 min, net uptake HEK-OCT2 minus HEK-VC
[4] = human, metformin 1000 μM, 3 min, net uptake HEK-OCT2 minus HEK-VC
[5] = test drug 20 µM, MPP+ 50 μM, 3 min, net uptake HEK-OCT2 minus HEK-VC
[6] = test drug 200 µM, MPP+ 50 μM, 3 min, net uptake HEK-OCT2 minus HEK-VC

Row | Compound | inhibition at 3 min, 20 µM [1, 3] | inhibition at 3 min, 200 µM [1, 4] | inhibition at 3 min, 20 µM ([2]; human) | inhibition at 3 min, 200 µM ([2]; human) | % Inhibition of OCT2-dependent MF uptake at 20 µM (mean ± SEM) ([1]; human, pH 7.3) | % Inhibition of OCT2-dependent MF uptake at 200 µM (mean ± SEM) ([1]; human, pH 7.3) | % Inhibition of OCT2-dependent MPP+ uptake at 20 µM (mean ± SEM) [2, 5] | % Inhibition of OCT2-dependent MPP+ uptake at 200 µM (mean ± SEM) [2, 6] | % Inhibition of OCT2-dependent MPP+ uptake at 20 µM (mean ± SEM) ([2]; human, pH 7.3) | % Inhibition of OCT2-dependent MPP+ uptake at 200 µM (mean ± SEM) ([2]; human, pH 7.3) | % Inhibition of OCT2-dependent MF uptake at 20 µM (mean ± SEM) ([1]; test drug 20 µM, metformin 1000 μM, 3 min, net uptake HEK-OCT2 minus HEK-VC)
1 | CCOc1nc2cccc(C(=O)O)c2n1Cc1ccc(-c2ccccc2-c2nnn[nH]2)cc1 [Candesartan] | 48 ± 3.7% | 69.7 ± 2.7% | 0.9 ± 0.1% | -2.4 ± 4% | – | – | – | – | – | – | –
2 | C[C@H](CS)C(=O)N1CCC[C@H]1C(=O)O [Captopril] | – | – | – | – | -21.6 ± 19.5% | -59.0 ± 0.9% | 3.8 ± 5.7% | 10.2 ± 6.8% | – | – | –
3 | NC(=O)N1c2ccccc2C=Cc2ccccc21 [Carbamazepine] | – | – | – | – | 0.2 ± 3.8% | 83.8 ± 1.2% | -51.4 ± 9.2% | -2.1 ± 4.4% | – | – | –
4 | COc1ccccc1OCCNCC(O)COc1cccc2[nH]c3ccccc3c12 (stereo not drawn) [Carvedilol] | – | – | – | – | 84.3 ± 5.2% | 98.6 ± 0.5% | 32.2 ± 3.7% | 88.5 ± 1.5% | – | – | –
5 | CO/N=C(\C(=O)N[C@@H]1C(=O)N2C(C(=O)O)=C(COC(N)=O)CS[C@H]12)c1ccco1 [Cefuroxime] | – | – | – | – | 29.9 ± 9.7% | 50.3 ± 11.6% | -10.5 ± 7.0% | -30.8 ± 12.9% | – | – | –
6 | CN(C)CC/C=C1/c2ccccc2Sc2ccc(Cl)cc21 [Chlorprothixene] | – | – | – | – | 66.8 ± 7.9% | 98.4 ± 0.9% | 29.9 ± 7.5% | 91.7 ± 2.2% | – | – | –
7 | C=C1CC[C@H](O)C/C1=C/C=C1\CCC[C@]2(C)[C@@H]([C@H](C)CCCC(C)C)CC[C@@H]12 [Cholecalciferol] | – | – | – | – | 2.8 ± 15.7 | 17.1 ± 5.0 | 6.8 ± 5.1% | 10.4 ± 6.1% | – | – | –
8 | CN(C)CCCC1(c2ccc(F)cc2)OCc2cc(C#N)ccc21 (stereo not drawn) [Citalopram] | – | – | – | – | 66.6 ± 7.9 | 78.9 ± 8.4 | 40.0 ± 9.9% | 75.2 ± 9.7% | – | – | –
9 | Cc1ncsc1CCCl [Clomethiazole] | – | – | – | – | -9.2 ± 6.8 | 28.7 ± 3.9 | -6.7 ± 9.2% | -147.3 ± 23.7% | – | – | –
10 | COC(=O)[C@H](c1ccccc1Cl)N1CCc2sccc2C1 [Clopidogrel] | – | – | – | – | 70.0 ± 2.0 | 92.8 ± 5.4 | – | – | 12.5 ± 0.8 | 41.5 ± 4.0 | –
11 | CN1CCN(C2=Nc3cc(Cl)ccc3Nc3ccccc32)CC1 [Clozapine] | – | – | – | – | 71.4 ± 1.6 | 98.7 ± 0.7 | 43.4 ± 4.7% | 84.1 ± 2.5% | – | – | –
12 | O=C(O)Cc1ccccc1Nc1c(Cl)cccc1Cl [Diclofenac] | – | – | – | – | 14.3 ± 8.8 | 59.1 ± 6.5 | 8.8 ± 8.9% | 24.0 ± 4.0% | – | – | –
13 | C[C@H]1O[C@@H](O[C@H]2[C@@H](O)C[C@H](O[C@H]3[C@@H](O)C[C@H](O[C@H]4CC[C@@]5(C)[C@H](CC[C@@H]6[C@@H]5CC[C@]5(C)[C@@H](C7=CC(=O)OC7)CC[C@]65O)C4)O[C@@H]3C)O[C@@H]2C)C[C@H](O)[C@@H]1O [Digitoxin] | – | – | – | – | 28.7 ± 7.9 | 32.8 ± 2.9 | -32.6 ± 3.8% | -32.4 ± 8.5% | – | – | –
14 | COc1cc2nc(N3CCN(C(=O)C4COc5ccccc5O4)CC3)nc(N)c2cc1OC (stereo not drawn) [Doxazosin] | – | – | – | – | 48.0 ± 5.5 | 92.1 ± 1.0 | 26.7 ± 10.3% | 45.8 ± 14.0% | – | – | –
15 | C[C@H]1c2cccc(O)c2C(=O)C2=C(O)[C@]3(O)C(=O)C(C(N)=O)=C(O)[C@@H](N(C)C)[C@@H]3[C@@H](O)[C@@H]21 [Doxycycline] | – | – | – | – | -21.8 ± 1.9 | 1.9 ± 9.1 | -12.9 ± 13.1% | -16.6 ± 11.7% | – | – | –
16 | C[C@]12CCC(=O)C=C1[C@@H]1C[C@@H]1[C@H]1[C@@H]3[C@@H]4C[C@@H]4[C@@]4(CCC(=O)O4)[C@@]3(C)CC[C@@H]12 [Drospirenone] | > 85% | 99.1 ± 0.7% | 0% | 42.6 ± 1.4% | – | – | – | – | – | – | 88.0 ± 7.3%
17 | CNCC[C@H](Oc1cccc2ccccc12)c1cccs1 [Duloxetine] | – | – | – | – | 76.5 ± 0.9 | 98.3 ± 0.2 | – | – | 23.3 ± 6.0 | 86.4 ± 5.1 | –
18 | CCOC(=O)[C@H](CCc1ccccc1)N[C@@H](C)C(=O)N1CCC[C@H]1C(=O)O [Enalapril] | – | – | – | – | 7.5 ± 2.3 | 34.2 ± 4.5 | 7.1 ± 7.4% | 20.2 ± 5.6% | – | – | –
19 | CN(C)CCC[C@@]1(c2ccc(F)cc2)OCc2cc(C#N)ccc21 [Escitalopram] | – | – | – | – | 62.6 ± 9.2 | 93.8 ± 3.6 | -26.3 ± 7.9% | 26.0 ± 10.1% | – | – | –
20 | C[C@]12CC[C@@H]3c4ccc(O)cc4CC[C@H]3[C@@H]1CC[C@@H]2O [Estradiol] | – | – | – | – | 57.9 ± 5.4 | 66.6 ± 2.1 | 10.6 ± 4.2% | 19.0 ± 6.5% | – | – | –
21 | C#C[C@]1(O)CC[C@H]2[C@@H]3CCc4cc(O)ccc4[C@H]3CC[C@@]21C [Ethinylestradiol] | – | – | – | – | 31.8 ± 8.1 | 62.2 ± 13.1 | 14.0 ± 8.8% | 46.8 ± 6.3% | – | – | –
22 | Cc1ccc(-c2ncc(Cl)cc2-c2ccc(S(C)(=O)=O)cc2)cn1 [Etoricoxib] | – | – | – | – | 64.1 ± 6.8 | 99.2 ± 2.7 | 2.3 ± 4.0% | 72.4 ± 2.2% | – | – | –
23 | O=C1[C@H](CC[C@H](O)c2ccc(F)cc2)[C@@H](c2ccc(O)cc2)N1c1ccc(F)cc1 [Ezetimibe] | -6.8 ± 9.7% | 0.2 ± 10% | -12.6 ± 12.4% | -13.2 ± 11.5% | – | – | – | – | – | – | –
24 | CCOC(=O)C1=C(C)NC(C)=C(C(=O)OC)C1c1cccc(Cl)c1Cl (stereo not drawn) [Felodipine] | – | – | – | – | 4.9 ± 6.1 | 15.9 ± 12.1 | -8.8 ± 12.0% | -16.8 ± 10.8% | – | – | –
25 | CC(C)OC(=O)C(C)(C)Oc1ccc(C(=O)c2ccc(Cl)cc2)cc1 [Fenofibrate] | – | – | – | – | 43.0 ± 9.9 | 73.4 ± 4.7 | 12.8 ± 5.0% | 32.0 ± 5.7% | – | – | –
26 | CN1C(=O)CN=C(c2ccccc2F)c2cc([N+](=O)[O-])ccc21 [Flunitrazepam] | – | – | – | – | 74.1 ± 3.1 | 92.9 ± 0.9 | 5.1 ± 8.4% | 57.5 ± 6.6% | – | – | –
